{"source": "patent US11596632B2", "about": "“JAK1 pathway inhibitors for the treatment of gastrointestinal disease” (Incyte Corporation, priority 2018, dated 2023)", "key": {"[1]": {"system": "IL-6 stimulated phosphorylated STAT3 in whole blood", "assay": "IL-6 stimulated STAT3 phosphorylation in whole blood", "type": "cell-based", "details": "Homo sapiens, IL-6 stimulated pSTAT3, read-out: ex vivo whole blood IC50", "description": "To assess the inhibitory activity of Compound 1 in serum-rich media, e.g., plasma or whole blood, the assay is conducted using whole blood; briefly, the whole blood sample is stimulated with IL-6 and levels of phosphorylated STAT3 are determined. This assay can be conducted either in vitro (human blood samples are spiked with Compound 1) or ex vivo (whole blood samples collected from human subjects dosed with Compound 1)."}, "[2]": {"assay": "Plasma pharmacokinetics after single oral sustained release dose", "type": "in vivo, human", "description": "The method used for analyzing Compound 1 in human plasma has been validated. Briefly, 50 μL of human plasma sample is placed in a 96-well plate. After an aliquot of 50 μL of internal standard (dissolved in 50:50 acetonitrile:water) is added, an aliquot of 100 μL of 0.1 M NaHCO3 is added. Then 800 μL of methyl-t-butyl ether (MtBE) is added and the samples are covered and vortexed. After centrifugation, 700 μL of MtBE layer is transferred to a clean 96-well plate. The samples are then dried under nitrogen at approximately 50° C. An aliquot of 250 μL of reconstitution solution (acetonitrile:water, 50:50, v/v) is then added to each sample. The plate is placed in the autosampler tray and injected into an LC-MS/MS for analysis. The LC-MS/MS analysis is carried out with an AB Sciex 4000 or a Sciex 6500 QTRAP mass spectrometer coupled with an HPLC pump and an autosampler. The chromatographic separation is achieved on a Waters T3 (50 mm×2.1 mm) HPLC column, with isocratic elution. The mass spectrometer is operated in positive ESI mode. The multiple reaction monitoring (MRM) transition is m/z 554.1→186.0 for Compound 1 and m/z 558.1→190.0 for the internal standard. Peak-area integrations are performed using the Analyst software and concentrations are calculated in Watson LIMS. Concentrations are calculated using 10 concentration levels ranging from 5 nM to 5000 nM with weighted linear regression, according to the following formula: y=ax+b(weighting factor=1/x^2) • where: x=Compound 1 concentration in nM; y=Peak-area ratio; a=Slope; and b=Intercept.\nThe lower limit of quantitation is 5 nM and the calibration curve ranges from 5 nM to 5000 nM for Compound 1 in human plasma.\nMethods: Compound 1 concentrations in plasma and feces (colonic surrogate) were determined following a single sustained release 25 mg oral dose (see, e.g., Example B, 25 mg SR composition). Compound 1 concentrations in plasma following a single 100 mg dose were also determined in a separate study (see, e.g., Example C for measuring concentrations of Compound 1 in plasma). Ex vivo study: Colon tissue samples from healthy and UC subjects (2/group) were mounted on a vertical Ussing diffusion chamber. [^14C]Compound 1 was applied to the apical side of the chamber at 100 and 1000 nM and incubated for 1 h. Samples were collected from the donor and receiver sides for determination of Compound 1 concentration. The colonic tissue was snap frozen for quantitative autoradiography.\nStandard noncompartmental pharmacokinetic methods were used to analyze Compound 1 plasma concentrations. The Cmax (maximum plasma concentration) and Tmax (time at which the maximum plasma concentration occurs) were taken directly from the observed plasma concentration data. The terminal-phase disposition rate constant (λZ) was estimated using a log-linear regression of the concentration data in the terminal disposition phase, and t1/2 was estimated as ln(2)/λZ. AUCall is defined as the area under the plasma concentration-time curve from time 0 to the last observation calculated using the linear trapezoidal rule for increasing concentrations and logarithmic trapezoidal rule for decreasing concentrations. AUC0-inf was calculated as AUC0-t+Ct/λZ, where by AUC0-t is defined as the area under the plasma concentration-time curve from time 0 to the last measureable concentration (also calculated using the linear-up/log-down trapezoidal rule) and Ct is the last measurable concentration. Cl/F is the apparent clearance and is calculated as Dose/AUC0-inf. Vz/F is the apparent volume of distribution based on the terminal phase calculated as Dose/(λZ*AUC0-inf)."}, "[3]": {"system": "IL-10 knockout mouse model of spontaneous colitis", "assay": "IL-10 knockout mouse model of spontaneous colitis", "type": "in vivo", "from_the_text": "The interleukin-10 (IL-10) knockout (KO) mouse model mirrors the multifactorial nature of inflammatory bowel disease (IBD), such as ulcerative colitis and Crohn's disease, as IL-10 KO mice, BALB/cAnNTac-1110^em7Tac, spontaneously develop colitis. Colitis in IL-10 KO mice results from an aberrant response of CD4^+ T helper 1-like T cells and an excessive secretion of the proinflammatory cytokines that signal through the Janus kinase/signal transducers and activators of transcription (JAK/STAT) pathway. Compound 1 is a potent JAK1 inhibitor with 22 to >500-fold selectivity for JAK2, JAK3 and TYK2, and is currently being investigated as a monotherapy in a clinical trial for moderate-to-severe ulcerative colitis.\nFemale IL-10 homozygote knockout mice on the BALB/c strain background were provided by Taconic (USA). From 6 weeks of age onwards, Compound 1 and vehicle (10 mL/kg) were administered by oral gavage twice daily. Diarrhea was quantified on a 0-3 rating scale, (0=normal; 1=soft but still formed; 2=very soft; 3=diarrhea). Mice were euthanized by CO2 asphyxiation and colon length and weight measured. Tissue pathology was scored on a scale of 0 to 10 based on the following criteria: Lymphocytic infiltrate in the mucosa and the gut associated lymphoid tissue located in the lamina propria/submucosa, mucosal erosions/ulcerations, and transmural inflammation. Body weight, stool consistency, fecal occult blood and rectal bleeding were scored. The incidence of rectal prolapse was recorded."}, "[4]": {"details": "single 25 mg SR oral dose, N=12"}, "[5]": {"details": "30 mg/kg oral twice daily, vs vehicle"}}, "note": "Entries after “also recorded” stand apart in the source; their conditions may differ. Read-outs that look alike come from different tables or passages of the source."}
{"smiles": "N#CCC1(n2cc(-c3ncnc4[nH]ccc34)cn2)CN(C2CCN(C(=O)c3ccnc(C(F)(F)F)c3F)CC2)C1", "note": "[Compound 1, {1-{1-[3-Fluoro-2-(trifluoromethyl)isonicotinoyl]piperidin-4-yl}-3-[4-(7H-pyrrolo[2,3-d]pyrimidin-4-yl)-1H-pyrazol-1-yl]azetidin-3-yl}acetonitrile]", "values": [{"measurement": "IC50", "setting": "[1]", "result": 141, "unit": "nM"}, {"measurement": "Cmax", "setting": "[2]; human, plasma, 100 mg, plasma, single 100 mg dose, separate study, read-out: Cmax, mean (SD)", "result": 84.4, "unit": "nM"}, {"measurement": "AUC(0-inf)", "setting": "[2]; human, plasma, po, 25 mg, plasma, single 25 mg SR oral dose, N=12, read-out: AUC0-inf, Geometric Mean", "result": 0.111, "unit": "µM·h"}, {"measurement": "AUC(0-inf)", "setting": "[2]; human, plasma, po, 25 mg, plasma, single 25 mg SR oral dose, N=12, read-out: AUC0-inf, Mean", "result": 0.117, "unit": "µM·h"}, {"measurement": "AUC", "setting": "[2]; human, plasma, po, 25 mg, plasma, single 25 mg SR oral dose, N=12, read-out: AUCall, Geometric Mean", "result": 0.105, "unit": "µM·h"}, {"measurement": "AUC", "setting": "[2]; human, plasma, po, 25 mg, plasma, single 25 mg SR oral dose, N=12, read-out: AUCall, Mean", "result": 0.11, "unit": "µM·h"}, {"measurement": "Cmax", "setting": "[2]; human, plasma, po, 25 mg, plasma, single 25 mg SR oral dose, N=12, read-out: Cmax, Geometric Mean", "result": 17.2, "unit": "nM"}, {"measurement": "Cmax", "setting": "[2]; human, plasma, po, 25 mg, plasma, single 25 mg SR oral dose, N=12, read-out: Cmax, Mean", "result": 18.9, "unit": "nM"}, {"measurement": "half-life", "setting": "[2]; human, plasma, po, 25 mg, single 25 mg SR oral dose, N=12, read-out: Half-life or t1/2, Geometric Mean (converted)", "result": 9.04, "unit": "h"}, {"measurement": "half-life", "setting": "[2]; human, plasma, po, 25 mg, single 25 mg SR oral dose, N=12, read-out: Half-life or t1/2, Mean (converted)", "result": 12.3, "unit": "h"}, {"measurement": "Vd/F", "setting": "[2]; human, plasma, po, 25 mg, single 25 mg SR oral dose, N=12, read-out: Vz/F, Geometric Mean", "result": 5290, "unit": "L"}, {"measurement": "Vd/F", "setting": "[2]; human, plasma, po, 25 mg, single 25 mg SR oral dose, N=12, read-out: Vz/F, Mean", "result": 7360, "unit": "L"}, {"measurement": "Tmax", "setting": "[2]; human, plasma, single 25 mg SR oral dose, N=12 (min 1, max 4), read-out: Tmax, median", "result": 2, "unit": "h"}, {"measurement": "dose proportionality of PK", "setting": "[2]; humans", "result": "supralinear PK with regard to dose"}, {"measurement": "oral bioavailability in humans", "setting": "[2]; in vivo, po", "result": "moderate"}, {"measurement": "Cl/F, Geometric Mean", "setting": "[2]; [4]", "result": 405, "unit": "L/h"}, {"measurement": "Cl/F, Mean", "setting": "[2]; [4]", "result": 424, "unit": "L/h"}, {"measurement": "colitis / disease onset", "setting": "[3]; 30 mg/kg oral twice daily", "result": "inhibited disease onset; also recorded: significantly (p<0.001) delayed colitis onset"}, {"measurement": "disease-associated weight loss", "setting": "[3]; 30 mg/kg oral twice daily", "result": "modulated disease-associated weight loss"}, {"measurement": "colon structural pathology", "setting": "[3]; [5]", "result": "significant (p<0.01) reduction in colon structural pathology"}, {"measurement": "cumulative clinical disease score (symptoms)", "setting": "[3]; [5]", "result": "reduces symptoms; also recorded: significantly (p<0.0001) reduced"}, {"measurement": "incidence of rectal prolapse", "setting": "[3]; [5]", "result": "significantly (p<0.01) lower"}, {"measurement": "lymphocytic infiltration and transmural inflammation", "setting": "[3]; [5]", "result": "significantly (p<0.01) decreased"}, {"measurement": "gene expression in the colon", "setting": "[3]; oral, vs vehicle", "result": "differential gene expression profiles in the colon"}, {"measurement": "colon morphology", "setting": "[3]; systemic (oral) delivery", "result": "significant protective effects on colon morphology"}]}
